The text below walks through data of patent publication US4997926A, “Deaminase-stable anti-retroviral 2-halo-2',3'-dideoxy” (Scripps Clinic and Research Foundation, priority 1987, dated 1991).

The conditions of data set [1]: acid conditions; cited from earlier work.
Another data set in a line: in vitro. The data set is classed as in vitro ADME, human. As to conditions: human, cem cell culture medium. As to the method: (§1) Under the same condition, only about 2 percent of [2',3'-^3 H]-2'3'-dideoxyadenosine remained in the medium after 4 hours culture.
(§2) ^1 Human CEM T lymphoblasts at a density of 2 × 10^7
(§3) cells/ml were incubated for 4 hours at 37 degrees C. with either 3 uM
(§4) [8^3 H2-chloro- 2',3dideoxyadenosine, or 2 uM [2',3^3
(§5) H2',3dideoxyadenosine or 2 uM [2',3^3 H2',3dideoxyinosine. Then the
(§6) dideoxynucleosides in the cultures were quantitated after separation by
(§7) HPLC. In these studies, the intracellular dideoxynucleotide content after
(§8) The human T lymphoblastoid cell line, CCRF-CEM, and mutants deficient in either deoxycytidine kinase (clone AraC-8D), or deoxycytidine kinase plus adenosine kinase (clone AraC-8DM10-5) were obtained and propagated as described previously [Foley et al., (1965) Cancer, 18:552-529 and Hershfield et al., (1982) J. Biol. Chem., 257:6380-6386]. For metabolic studies, the cells were cultured in RPMI 1640 medium supplemented with 2 mM L-glutamine and 10 percent fetal bovine serum at a density of 2×10^7 cells/ml in the presence of radiolabelled dideoxynucleosides, as indicated earlier. Some cultures were pre-incubatedfor 30 minutes either with 5 uM 2'-deoxycoformycin or 50 uM coformycin. After 4 hours of incubation the cells were harvested by centrifugation.
(§9) The radioactive compounds in the culture medium were fractionated by thin layer chromatography. Ten microliter (ul) aliquots of medium were spotted directly on cellulose plates and developed with 1 M ammonium acetate pH 7.4. […] The respective spots were cut out and radioactivity was determined by liquid scintillation spectrometry. The identities of the spots were also confirmed by cochromatography of the radioactive counts with authentic compounds on a C18 uBondapak column, that was eluted as described above.

In the next data set the test system is uninfected ATH8 cells. As to conditions: normal, read-out: Dose required to reduce the viability by 50 percent; cited from earlier work.
In a further data set the test system is HIV in ATH8 cells. The note with it: HIV-infected ATH8 cells; read-out: Concentration providing a 50 percent protection level against the cytopathic effect of HIV; cited from earlier work. On the technique in general: Damage to the host cells serves as the signal in cytopathic effect assays.
Data set [2] relates to HIV (strain LAV) in MT-2 cells. In words: HIV-induced syncytia formation and cytopathic effect in MT-2 T lymphoblasts. The data set is classed as cell-based. The source says:
The anti-HIV activities of the 2-halo-2',3'-dideoxyadenosine derivatives were first assayed in human MT-2 T lymphoblasts, as this system readily permitted a differentiation between anti-retroviral and anti-proliferativeeffects Exposure of the MT-2 T cell line to cell-free HIV led to the formation of syncytia within 4-5 days, and to a parallel decline in cell viability.
The MT-2 human lstoid cell line, which carries the human T cell leukemia virus type I (HTLV-1) genome, was used to assess the cytopathic effects of HIV, and the protective effects of the various nucleosides. […] The formation of syncytia, with resultant cell death, depends upon the expression on the cell-surface of the HIV envelope glycoproteins gp160, gp120, and gp4l, by cells that bear the differentiation antigen CD4 (T4) [Lipson et al., (1986) Nature, 323:725-728].
In the reported studies, the formation of syncytia in the MT-2 cell line (provided by J. Riggs and M. Aschen, State Department of Public Health, Berkelye, CA) was a sensitive and reproducible system to follow both the course of HIV infection and the potential cytotoxic effects of the added nucleosides. HIV (strain LAV) maintained in CEM cell culture was obtained from F. Barre-Sinoussi, J. C. Chermann and L. Montagnier (Institute Pasteur, Paris).
Cell-free virus was prepared by mixing LAV-infected CEM cells with two liters of 2×10^6 cells/ml of uninfected CEM cells at a ratio of 1:20 and incubating at 37 degrees C. for six days at which time, more than 80 percent of the cells expressed the p24 (gag) antigen using mouse monoclonal antibody M33, obtained from F. Vernoese di Marzo and M. Sarngadharan (Litton Bionetics, Rockville, Md.) using an enzyme immunofiltration staining method [Cleveland et al. (1987) J. Clin. Microbiol., 25:416-420]. The cells were centrifuged at 750×g for 10 minutes. The clarified supernatant was then titered by terminal dilution assay in 96 well microtiter plates containing 6×10^4 MT-2 cells per well suspended in a final volume of 200 ul RPMI 1640 medium containing 10 percent fetal bovine serum, 2 mM glutamine and […].
When HIV was added to this microtiter culture system at a multiplicity of infection of 0.1 TCID50 /cell, multinucleated giant cells appeared within 48 hours, and the majority of cells were fused in syncytia structures by day 4. The appearance of giant cells correlated with detectable antigens and RNA of HIV.
For measurement of antiviral activity, different concentrations of the assayed compounds were added to duplicate wells at the time of infection, and the cultures were incubated at 37 degrees C. After 4 and 5 days, the numbers of syncytia per culture were enumerated microscopically.
The results presented herein were confirmed in five separate experiments. Controls containing uninfected and infected cells with and without anti-retroviral nucleosides were included.
The results were expressed in semi-quantitative units that take into account the growth pattern of MT-2, and the ability of the HIV to cause both syncytia formation and cell death. In this unit system, 1 corresponds to 1-3 syncytia per well and no change in cell count compared to control cultures lacking virus; 2 corresponds to 3-10 syncytia per well and up to 20 percent cell death; 3 corresponds to 10-30 syncytia per well and a 20-70 percent drop in cell viability; 4 corresponds to more than 30 syncytia well and at least a 70 percent fall in the viable cell count.

For data set [3], the system named is HIV in PHA-stimulated lymphocytes. In words: HIV-infected PHA-stimulated lymphocytes, antigen ELISA of supernate, positive cultures. The data set is classed as cell-based. As to conditions: 10 uM, ten cultures, ELISA OD490. As to the method:
The activities of 2-halo-2',3'-dideoxyadenosine (2-F-,2-Cl- or 2-Br-ddA) derivatives were compared to those of 2-fluoro- and 2-chloro-2',3'-dideoxyinosine (2-F- and 2-Cl-ddI) and 2',3-dideoxyadenosine (ddA) against HIV-infected, antigen ELISA assay described herein.
The PHA-stimulated lymphocytes were suspended in media containing cell-free HIV, and were incubated overnight (about 18 hours). The cells were thereafter pelleted resuspended in a growth medium as pharmacologically acceptable carrier containing one of the above compounds at a 10 uM concentration, or with no added compound as a control, and plated at 10^5 cells per microculture; the medium was also supplemented with interleukin-2. The release of virus into the supernate was measured by ELISA at 4, 8 and 12 days, post-inoculation. Each microculture plate also contained ten virus-free cultures that served as further controls. Ten cell cultures were used for each compound.
Cultures were scored positive if the optical density in the ELISA (OD490) was greater than two standard deviations above the readings for the virus-free cultures. This method is adapted from that of McDougal et al. (1985) J. Immunol. 135:3151.

For the next data set, the system named is CEM T lymphoblasts. In words: in vitro. The data set is classed as in vitro ADME, human. As to the method:
as §1, §2, §3, §4, §5, §6, §7, §8, §9

SMILES strings stand for the structures. Some results are limits rather than exact numbers.

For orientation: amount remaining means what is left of the initial amount, in per cent. Low readings indicate more turnover, high ones less turnover. As to `Nc1ncnc2c1ncn2[C@H]1CC[C@@H](CO)O1` [2',3'-dideoxyadenosine, reference compound], the “rate of acid hydrolysis relative to adenosine” value in data set [1] is listed as “about 40,000 times faster”. This molecule yielded a share remaining at 4 h, 2 µM in the data set “in vitro” of about 2%. Moreover, the CC50 with uninfected ATH8 cells is over 500000 nM. The EC50 with HIV in ATH8 cells is 2700 nM. Also, the “cytopathic effect of HIV / virus-induced cell killing” value in data set [2] is “inhibit the cytopathic effect of HIV”. For the same molecule, in data set [3], the “positive cultures on day 4” value is listed as “no positives”, the “positive cultures on day 8” value is given as 100% and the “positive cultures on day 12” value is on record as 100%.

Turning to `Nc1nc(Cl)nc2c1ncn2[C@H]1CC[C@@H](CO)O1` [2-chloro-2',3'-dideoxyadenosine], the Catabolism in the data set with CEM T lymphoblasts (Addition none, 4 hours, 37 degrees C., 2-3 uM) came to 40 pmols/hr 10^8 cells. The “deamination by CEM cells” value in the data set with CEM T lymphoblasts (radiolabelled compound, medium of CEM cell cultures) was “did not significantly deaminate”. In addition, the HIV-induced syncytia formation result in data set [2] (10 uM) is recorded as “blocked syncytia formation”.
